Test results as given in US20080069785A1, “PEST-CONTROL COMPOSITIONS, AND METHODS AND PRODUCTS UTILIZING SAME” (priority 2004, published 2008).

Test system: cockroaches (Blattella germanica)
Assay: Weeklong surface area toxicity test on cockroaches (Example 19)
Type: in vivo
Details: for cockroaches alive (of five): 0-1 days; for cockroaches alive (of five per cup): 3-4 days treatment
Procedure: In order determine the toxicity of the formulation to the insect after application to a surface over a period of time, the following test was performed. […] Cockroaches were placed in the cups on the first day following the application of the formulations, on the third day following the application of the formulations, and on the sixth day following the application of the formulations in order to monitor the toxicity of the formulations after a period of time had elapsed. The mortality of the cockroaches was then recorded at the time intervals noted. The five cockroaches placed in each cup were one week old cockroaches (Blattella germanica) which had been reared at twenty seven degrees centigrade, at sixty five percent relative humidity, and on a twelve hour light to dark photoperiod. Each of the cups had Fluon®AD1 treated sides to prevent the escape of the cockroaches.

SMILES: CCCCCCCCCC(C)=O [Undecanone, 2-Undecanone]
- cockroaches alive (of five) (0.02 μL/cm^2 (1 μL), 5 min): 5
- cockroaches alive (of five) (0.02 μL/cm^2 (1 μL), 10 min): 5
- cockroaches alive (of five) (0.02 μL/cm^2 (1 μL), 15 min): 5
- cockroaches alive (of five) (0.02 μL/cm^2 (1 μL), 30 min): 5
- cockroaches alive (of five) (0.02 μL/cm^2 (1 μL), 60 min): 5
- cockroaches alive (of five) (0.02 μL/cm^2 (1 μL), 90 min): 5
- cockroaches alive (of five) (0.02 μL/cm^2 (1 μL), 2 h): 5
- cockroaches alive (of five) (0.02 μL/cm^2 (1 μL), 4 h): 5
- cockroaches alive (of five) (0.02 μL/cm^2 (1 μL), 17.5 h): 5
- cockroaches alive (of five) (0.02 μL/cm^2 (1 μL), 18 h): 5
- cockroaches alive (of five) (0.02 μL/cm^2 (1 μL), 21 h): 5
- cockroaches alive (of five) (0.02 μL/cm^2 (1 μL), 24 h): 5
- cockroaches alive (of five) (0.02 μL/cm^2 (1 μL), 27.5 h): 5
- cockroaches alive (of five) (0.02 μL/cm^2 (1 μL), 29 h): 5
- cockroaches alive (of five) (0.02 μL/cm^2 (1 μL), 30 h): 5
- cockroaches alive (of five) (0.09 μL/cm^2 (5 μL), 5 min): 5
- cockroaches alive (of five) (0.09 μL/cm^2 (5 μL), 10 min): 5
- cockroaches alive (of five) (0.09 μL/cm^2 (5 μL), 15 min): 4
- cockroaches alive (of five) (0.09 μL/cm^2 (5 μL), 30 min): 4
- cockroaches alive (of five) (0.09 μL/cm^2 (5 μL), 60 min): 4
- cockroaches alive (of five) (0.09 μL/cm^2 (5 μL), 90 min): 4
- cockroaches alive (of five) (0.09 μL/cm^2 (5 μL), 2 h): 4
- cockroaches alive (of five) (0.09 μL/cm^2 (5 μL), 4 h): 4
- cockroaches alive (of five) (0.09 μL/cm^2 (5 μL), 17.5 h): 4
- cockroaches alive (of five) (0.09 μL/cm^2 (5 μL), 18 h): 4
- cockroaches alive (of five) (0.09 μL/cm^2 (5 μL), 21 h): 4
- cockroaches alive (of five) (0.09 μL/cm^2 (5 μL), 24 h): 4
- cockroaches alive (of five) (0.09 μL/cm^2 (5 μL), 27.5 h): 3
- cockroaches alive (of five) (0.09 μL/cm^2 (5 μL), 29 h): 3
- cockroaches alive (of five) (0.09 μL/cm^2 (5 μL), 30 h): 3
- cockroaches alive (of five) (0.19 μL/cm^2 (10 μL), 5 min): 5
- cockroaches alive (of five) (0.19 μL/cm^2 (10 μL), 10 min): 5
- cockroaches alive (of five) (0.19 μL/cm^2 (10 μL), 15 min): 5
- cockroaches alive (of five) (0.19 μL/cm^2 (10 μL), 30 min): 2
- cockroaches alive (of five) (0.19 μL/cm^2 (10 μL), 60 min): 0
- cockroaches alive (of five) (0.19 μL/cm^2 (10 μL), 90 min): 0
- cockroaches alive (of five) (0.19 μL/cm^2 (10 μL), 2 h): 0
- cockroaches alive (of five) (0.19 μL/cm^2 (10 μL), 4 h): 0
- cockroaches alive (of five) (0.19 μL/cm^2 (10 μL), 17.5 h): 0
- cockroaches alive (of five) (0.19 μL/cm^2 (10 μL), 18 h): 0
- cockroaches alive (of five) (0.19 μL/cm^2 (10 μL), 21 h): 0
- cockroaches alive (of five) (0.19 μL/cm^2 (10 μL), 24 h): 0
- cockroaches alive (of five) (0.19 μL/cm^2 (10 μL), 27.5 h): 0
- cockroaches alive (of five) (0.19 μL/cm^2 (10 μL), 29 h): 0
- cockroaches alive (of five) (0.19 μL/cm^2 (10 μL), 30 h): 0
- cockroaches alive (of five) (0.95 μL/cm^2 (50 μL), 5 min): 0
- cockroaches alive (of five) (0.95 μL/cm^2 (50 μL), 10 min): 0
- cockroaches alive (of five) (0.95 μL/cm^2 (50 μL), 15 min): 0
- cockroaches alive (of five) (0.95 μL/cm^2 (50 μL), 30 min): 0
- cockroaches alive (of five) (0.95 μL/cm^2 (50 μL), 60 min): 0
- cockroaches alive (of five) (0.95 μL/cm^2 (50 μL), 90 min): 0
- cockroaches alive (of five) (0.95 μL/cm^2 (50 μL), 2 h): 0
- cockroaches alive (of five) (0.95 μL/cm^2 (50 μL), 4 h): 0
- cockroaches alive (of five) (0.95 μL/cm^2 (50 μL), 17.5 h): 0
- cockroaches alive (of five) (0.95 μL/cm^2 (50 μL), 18 h): 0
- cockroaches alive (of five) (0.95 μL/cm^2 (50 μL), 21 h): 0
- cockroaches alive (of five) (0.95 μL/cm^2 (50 μL), 24 h): 0
- cockroaches alive (of five) (0.95 μL/cm^2 (50 μL), 27.5 h): 0
- cockroaches alive (of five) (0.95 μL/cm^2 (50 μL), 29 h): 0
- cockroaches alive (of five) (0.95 μL/cm^2 (50 μL), 30 h): 0
- cockroaches alive (of five per cup) (0.02 μL/cm^2 (1 μL), 5 min): 5
- cockroaches alive (of five per cup) (0.02 μL/cm^2 (1 μL), 10 min): 5
- cockroaches alive (of five per cup) (0.02 μL/cm^2 (1 μL), 15 min): 5
- cockroaches alive (of five per cup) (0.02 μL/cm^2 (1 μL), 30 min): 5
- cockroaches alive (of five per cup) (0.02 μL/cm^2 (1 μL), 60 min): 5
- cockroaches alive (of five per cup) (0.02 μL/cm^2 (1 μL), 90 min): 5
- cockroaches alive (of five per cup) (0.02 μL/cm^2 (1 μL), 2 h): 5
- cockroaches alive (of five per cup) (0.02 μL/cm^2 (1 μL), 4 h): 5
- cockroaches alive (of five per cup) (0.02 μL/cm^2 (1 μL), 23 h): 5
- cockroaches alive (of five per cup) (0.02 μL/cm^2 (1 μL), 24 h): 5
- cockroaches alive (of five per cup) (0.02 μL/cm^2 (1 μL), 27 h): 5
- cockroaches alive (of five per cup) (0.02 μL/cm^2 (1 μL), 30 h): 5
- cockroaches alive (of five per cup) (0.09 μL/cm^2 (5 μL), 5 min): 5
- cockroaches alive (of five per cup) (0.09 μL/cm^2 (5 μL), 10 min): 5
- cockroaches alive (of five per cup) (0.09 μL/cm^2 (5 μL), 15 min): 5
- cockroaches alive (of five per cup) (0.09 μL/cm^2 (5 μL), 30 min): 5
- cockroaches alive (of five per cup) (0.09 μL/cm^2 (5 μL), 60 min): 5
- cockroaches alive (of five per cup) (0.09 μL/cm^2 (5 μL), 90 min): 5
- cockroaches alive (of five per cup) (0.09 μL/cm^2 (5 μL), 2 h): 5
- cockroaches alive (of five per cup) (0.09 μL/cm^2 (5 μL), 4 h): 5
